Assay results as given in patent publication US9708368B2, “Linear peptide antibiotics” (priority 2012, dated 2017).
Converted amounts (≈) assume the structure as drawn. Read-outs that look alike come from different tables or passages of the source. Square brackets hold non-standard residues; d marks the D form. Peptide text beside a SMILES is read from it. * marks the point of attachment. ξ: configuration not given here. Biphenylcarbonyl(4'-Bu) = CCCCc1ccc(-c2ccc(C(=O)*)cc2)cc1; Benzoyl(4-hexyl) = CCCCCCc1ccc(C(=O)*)cc1; X5 = C[C@H](N*)B1OC2C3CCC(C3(C)C)C2(C)O1; NMeThr(3ξ) = CN[C@H](C(=O)O)C(C)O; Myristoyl = CCCCCCCCCCCCCC(=O)*; Thr(3ξ) = CC(O)[C@H](N)C(=O)O; Decanoyl = CCCCCCCCCC(=O)*; boroAla = C[C@H](N*)B(O)O; Dab = NCC[C@H](N)C(=O)O; boroGly = OB(O)CN*

How the values were obtained:
E. coli SPase = E. coli SPase (Escherichia coli, UniProt P00803); test: Biochemical SPase activity assay (fluorogenic peptide substrate), E. coli enzyme
Procedure: Reactions were initiated by the addition of substrate to a final concentration of 20 μM. Reaction progress was monitored by measuring the increase in fluorescence signal (excitation at 314 nm, emission at 416 nm) using a SpectraMax M2 fluorescence microplate reader. […] Three-folder serial dilutions of test compounds, starting at 10 μM, were prepared in enzyme mix solution and incubated at room temperature for 10 minutes. Following this incubation, fluorogenic substrate was added to a final concentration of 20 μM and the increase in fluorescence, corresponding to substrate cleavage, was monitored continuously at room temperature for 1 hour. Initial reaction rates were calculated based on the rate of increase in fluorescence during the reaction. Reaction rates were plotted as a function of compound concentration, and IC50 values are determined nonlinear regression analysis (SoftMaxPro 5.4, Molecular Devices™) of the sigmoidal dose-response curve.

S. aureus SPase [1] = biological target: T1, S. aureus SPase (Staphylococcus aureus, UniProt P0A070); test: biochemical
[2] = tested on: Escherichia coli MC4100 IMP-4213 in which transcription of the SPase encoding gene is under control of a tetracycline inducible promoter; conditions: Method A; E. coli MC4100 IMP-4213 with decreased SPase expression; 35° C., 22 hours
Procedure: (§1) In vitro antimicrobial activity of each compound was determined by measuring minimal inhibitor concentrations (MICs) using the broth micro-dilution technique as approved by the Clinical and Laboratory Standards Institute (CLSI). […] Cells were inoculated onto Trypyticase Soy Agar or Luria Agar containing 16 ng/ml of anhydrotetracycline respectively and grown at 35° C. for 20 hours. Inocula suspensions were made by scraping cells into 1 mL of testing media (cation adjusted Mueller Hinton Broth supplemented with 0.002% v/v Tween-80) and diluting to a final OD600 nm of 0.01.
(§2) Test compounds were prepared in DMSO at a concentration of 10 mg/ml. […] Inocula suspensions were added to the two fold serial dilutions of test compounds to a final density of OD OD600 nm of 0.0005 and incubated stationary at 35° C. for 22 hours, after which the plates were examined visually.

[3] = tested on: Methicillin Resistant Staphylococcus aureus strain USA 300 (NRS384); conditions: Method A; MRSA USA 300 (NRS384); 35° C., 22 hours
Procedure: as §1, §2

S. aureus SPase [4] = biological target: T1, S. aureus SPase; conditions: read-out: IC 50 (nM) S. aureus

E. coli SPase, sequence (P00803 whole entry): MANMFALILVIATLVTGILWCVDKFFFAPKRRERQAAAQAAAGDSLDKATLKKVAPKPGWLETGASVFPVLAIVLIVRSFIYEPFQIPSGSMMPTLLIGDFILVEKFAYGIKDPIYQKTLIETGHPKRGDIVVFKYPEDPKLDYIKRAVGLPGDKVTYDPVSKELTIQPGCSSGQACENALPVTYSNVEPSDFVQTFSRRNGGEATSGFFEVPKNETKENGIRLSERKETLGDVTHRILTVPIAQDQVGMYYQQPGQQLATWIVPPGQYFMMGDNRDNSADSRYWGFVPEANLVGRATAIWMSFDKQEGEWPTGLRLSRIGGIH
T1 sequence (P0A070 whole entry): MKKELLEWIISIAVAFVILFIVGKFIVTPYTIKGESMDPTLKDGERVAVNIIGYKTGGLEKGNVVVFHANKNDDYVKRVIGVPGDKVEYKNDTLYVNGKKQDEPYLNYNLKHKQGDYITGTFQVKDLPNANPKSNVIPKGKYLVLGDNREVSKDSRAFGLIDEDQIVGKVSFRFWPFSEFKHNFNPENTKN

Compound	IC50 (E. coli SPase) [nM]	IC50 (S. aureus SPase [1]) [nM]	MIC (μg/mL) E. coli [2] [µg/mL]	MIC (μg/mL) S. aureus [3] [µg/mL]	IC50 (S. aureus SPase [4]) [nM]	IC50 (E. coli SPase; read-out: IC 50 (nM) E. coli, E. coli SPase 2.5 nM, substrate 20 μM, 10 minutes pre-incubation) [nM]
CCCCCCCCCCCCCC(=O)N[C@H](CO)C(=O)N[C@H](C)C(=O)NCC(=O)N(C)[C@H](C(=O)N[C@@H](C)C(=O)N[C@@H](CC(C)C)C(=O)N[C@@H](C)B1OC2C3CCC(C3(C)C)C2(C)O1)C(C)O (some centres unmarked) [Compound 123] (Myristoyl-[dS][dA]G[NMeThr(3ξ)]AL-X5)	220	42	25 (≈ 26.4 µM)	64 (≈ 67.5 µM)	–	–
CCCCCCc1ccc(C(=O)N[C@H](CO)C(=O)N[C@H](C)C(=O)NCC(=O)N(C)[C@H](C(=O)N[C@@H](C)C(=O)N[C@@H](CC(N)=O)C(=O)NCB(O)O)C(C)O)cc1 (some centres unmarked) [Compound 124] ({Benzoyl(4-hexyl)}-[dS][dA]G[NMeThr(3ξ)]AN-boroGly)	810	83	>64	>64	–	–
CCCCCCCCCC(=O)N[C@@H](CC(C)C)C(=O)N[C@H](C(=O)N1CCC[C@@H]1C(=O)N[C@H](C(=O)N[C@@H](C)C(=O)N[C@@H](Cc1ccc(O)cc1)C(=O)NCB(O)O)C(C)O)C(C)O (some centres unmarked) [Compound 128] (Decanoyl-L[Thr(3ξ)][dP][Thr(3ξ)]AY-boroGly)	3000	670	>64	>64	–	–
CCCCc1ccc(-c2ccc(C(=O)N[C@@H](CCN)C(=O)N[C@H](C(=O)N[C@@H](C)C(=O)N[C@@H](CCCCN)C(=O)N[C@@H](C)B(O)O)[C@@H](C)O)cc2)cc1 [Compound 238] ({Biphenylcarbonyl(4'-Bu)}-[Dab]TAK-boroAla)	–	–	–	–	33	4.6
